Results from US9751830B2, “Inhibitors of the tumor necrosis factor receptor complex” (The Trustees of the University of Pennsylvania, priority 2010, dated 2017).

How the values were obtained:
L929 cells = assay: Inhibition of TNF-α-induced cytolysis in L929 cells (Crystal Violet staining); format: cell-based, murine
Method: L929 cultured murine fibroblast cells were obtained from American Type Culture collection (Manassas, Va.). TNF-α was obtained from Roche Applied Science (T6674). Actinomycin D (ACTD) and Crystal Violet were obtained from Sigma-Aldrich. Testing compounds were dissolved in DMSO at 25 mM. Compounds F001 and FT002/F002, appearing in FIG. 3 and FIG. 2/FIG. 4, were described previously in application Ser. No. 11/815,134 as FIGS. 1-6 and 1-9, respectively, and are reproduced here for reference. Compound 71023, appearing in FIG. 1, was ([(aminocarbothioyl)amino]{[4-({[[(aminocarbothioyl)amino](ammonio)methyl]amino}methyl)-2,5-dimethylbenzyl]amino}methylidene)ammonium dichloride, available from Maybridge Chemicals, UK. Compound MH_072 (also described herein as the compound of formula (II)) was also obtained from Maybridge Chemicals, UK. Compound MH_0724 was synthesized by Sapient Discovery, San Diego, Calif., as described in Example 2.
(§1) Stock L929 cells were grown on tissue culture plastic in complete Dulbecco's Modified Eagle Medium (DMEM) supplemented with 5 weight percent FBS [Fetal Bovine Serum], NEAA [non-essential amino acids], and glutamine. In a first set of experiments, L929 cells were plated using the same medium on 96-well tissue culture plates at high density (i.e., 30,000 cells/well) before use. In a second set of experiments, the testing compounds were pre-incubated with cells for 1 hour. hTNF-α (10 ng/ml) was added to cells for 30 minutes. Cell lysates were then collected for routine Western Blot.
(§2) Approximately 20 hours after plating the L929 cells on 96-well plates, they were re-fed onto fresh medium containing the test compounds (from 0 to 100 μM, final concentration).
For the TNF-α challenges, approximately 30 minutes later, medium containing 4 unit/mL rh-TNF-α and actinomycin D (10 μg/mL) was added. The final concentrations of rh-TNF-α in the assays were […], which is the ED50 concentrations confirmed to induce 50% cell death. The final concentrations of actinomycin D in the assays were 2.5 μg/mL. The plates were incubated for an additional 16-20 hours at 37° C., 5 vol % CO2 in air.
For Crystal Violet staining, the culture medium was discarded and replaced with 0.2% by weight (in 2% by volume ethanol in water), 100 μL/well. After 15 minutes incubation at room temperature, the plates were washed 6 times with deionized water and dried at 37° C. for 40 minutes. Sodium dodecylsylfate (SDS), (1 wt % in water; 100 μL) was added to each well and mixed gently for 1 hour at room temperature. The plates were read at A570 nm

[1] = system: TNFα mediated NFκB activity (A549Luc cells); assay: TNFα mediated NFκB luciferase reporter assay in A549Luc cells; format: cell-based, human; conditions: for inhibition of TNFα mediated luciferase activity: 1 hr pre-treatment, 20 ng/ml TNFα 4 hours, FIG. 7; for activity to reduce luciferase activity, F002 and MH0724 compared: concentrations up to 75 μM
Method: To study TNFα mediated-NFκB activity, a luciferase reporter system was established. The stable cell line A549Luc was derived from human A549 cells with chromosomal integration of a luciferase reporter construct regulated by 6 copies of the NFκB response element. This clonal cell line was obtained by co-transfection of pNFκB-TA-luc and pFLAG-TNFR1-neo followed by G418 selection at 800 μg/ml. A549Luc cells were pre-treated with inhibitors at indicated concentrations for 1 hr before incubation with 20 ng/ml TNFα for 4 hours. Increased luciferase activity was recorded after TNFα treatment. Luciferase activity was determined using the Luciferase Assay System from Promega.
In this assay, the luciferase activity of A549Luc cells before and after TNFα treatment (20 ng/ml) was equivalent to 0% and 100%, respectively.

[2] = system: phosphorylation of IκB (p-IκBα(Ser32)); assay: Western blot of TNFα-induced phosphorylation of IκB in L929 cells; format: cell-based, murine; conditions: FIG. 4
Method: (§3) hTNF-α was obtained from Sigma (Cat # T6674). Antibodies for IκB, phospho-IκB, p38, and phospho-p38 were purchased from Cell Signaling.
as §1
(§4) Inhibition of TNFα signaling pathways: Upon binding to TNFRs, TNFα induces inflammation through the activation of NFκB and p38 signaling pathways. We determined IκB and p38 effects. IκB is the inhibitor for NFκB. TNFα leads to the phosphorylation and disassociation of IκB from NFκB, a signaling event required for NFκB to become activated and translocate into the nucleus to mediate gene transcription.

[3] = Solubility under the conditions of the L929 cytolysis assay; format: physicochemical; conditions: L929 cytolysis assay medium, plasma or biological fluid; read-out: soluble under these conditions only up to
Method: as §2

[4] = molecular target: T1, TNFR1 ectodomain (TNFR1 ECD) (Homo sapiens, UniProt P19438); assay: Isothermal titration calorimetry (ITC) binding to TNFR1 ectodomain; conditions: 25° C., pH 8.0, 5% DMSO, estimated, read-out: affinity between compound and TNFR1 ECD
T1 construct: The calorimetric cell containing purified TNFR1 ectodomain at a concentration of 0.1 mM; His; made in house
T1 sequence (P19438 30-211 limits assumed): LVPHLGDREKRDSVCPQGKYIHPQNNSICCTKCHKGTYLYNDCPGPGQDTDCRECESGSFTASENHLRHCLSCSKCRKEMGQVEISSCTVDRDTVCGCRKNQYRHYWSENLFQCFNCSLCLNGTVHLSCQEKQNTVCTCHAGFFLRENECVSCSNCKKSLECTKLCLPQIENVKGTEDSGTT
Method: Human TNFR1 ectodomain was expressed in bacteria as described Murali, et al., 2005 PNAS 102:10970-75, which is incorporated by reference herein in its entirety. The His-tagged recombinant protein was purified from bacterial cell lysate using Ni-NTA column About 4 mg proteins were obtained from 6 liters of culture. The purified TNFR1 ectodomain was verified for binding activity to hTNF-α in ELISA assay.
Isothermal Titration calorimetry (ITC). The binding thermodynamics of MH724 to TNFR1 was measured by ITC using a high precision VP-ITC titration calorimetric system (Microcal LLC, Northampton, Mass.). The calorimetric cell containing purified TNFR1 ectodomain at a concentration of 0.1 mM in 50 mM sodium phosphate buffer (pH 8.0) containing 300 mM NaCl and 5% DMSO was titrated with MH724 dissolved in the same buffer. The concentration of inhibitor was 2 mM. Injection volumes were 8 μl. All solutions were properly degassed to avoid any formation of bubbles in the calorimeter during stirring. The heat evolved upon each injection of inhibitor was obtained from the integral of the calorimetric signal. The heat associated with the binding of the inhibitor to TNFR1 was obtained by subtracting the heat of dilution from the heat of reaction. The measurements were made at 25° C. Data were analyzed and fitted by using the data analysis software supplied by Microcal (ORIGIN 5.0).

[5] = system: phosphorylation of p38 (p-p38); assay: Western blot of TNFα-induced phosphorylation of p38 in L929 cells; format: cell-based, murine; conditions: 50 μM; 1 hour pre-incubation, hTNF-α 10 ng/ml 30 minutes; FIG. 4
Method: as §3, §1, §4

For COc1ccc(C(O)(c2ccc(OC)cc2)c2ccc(OC)cc2)cc1 [Compound F001, reference compound], the “inhibition of TNF-α-induced cytolysis in L929 cells” value (“inhibition … in L929 cells” for short) (L929 cells; from 0 to 100 μM, FIG. 3) was “minimal activity”.
With CC(=O)Oc1ccc(C(O)(c2ccc(OC(C)=O)cc2)c2ccc(OC(C)=O)cc2)cc1 [Compound F002, reference compound] the “inhibition of TNFα mediated luciferase activity” value [1] was “dose-dependent manner”, the “activity to reduce luciferase activity, F002 and MH0724 compared” value [1] was “comparable activity” and the “activity on TNFα signaling, F002 compared with MH724” value ([2]; 10 μM, IκB and p38 phosphorylation) was “slightly more activity”.
For CC(=O)Nc1ccccc1OCC(O)CNCc1ccc(C(F)(F)F)cc1 (stereo not shown) [MH_072], the solubility [3] was no more than 50 µM, the “maximum inhibition of TNF-α-induced cytolysis” value (L929 cells; 0 to 50 μM, level limited by solubility) was “about 30%” and the inhibition at 50 µM (L929 cells; Mus musculus, L929, at 50 μM) was roughly 30%. For the same molecule, the “inhibition … in L929 cells” value (L929 cells; from 0 to 50 μM, FIG. 2) was “dose-dependent inhibition”.
In the case of COC(CNc1ccc(C(F)(F)F)cc1)COc1ccccc1COC(C)=O (stereo not shown) [MH_0724, Acetic acid 2-[2-methoxy-3-(4-trifluoromethyl-phenylamino)-propoxy]-benzyl ester], the Kd [4] is reported as 32 µM, the “luciferase activity, of the control” value ([1]; 100 μM, before and after TNFα treatment = 0% and 100%) is reported as “less than 40%” and the “inhibition of TNFα mediated luciferase activity” value [1] is reported as “dose-dependent manner”. For the same molecule, the “activity to reduce luciferase activity, F002 and MH0724 compared” value [1] was “comparable activity”, the “inhibition of TNFα-induced phosphorylation of IκB” value ([2]; 50 μM, 1 hour pre-incubation, hTNF-α 10 ng/ml 30 minutes) was “clearly inhibits” and the “activity on TNFα signaling, MH724 compared with F002” value ([2]; 50 μM, IκB and p38 phosphorylation) was “better activity”. For the same molecule, the inhibition at 100 µM (L929 cells; Mus musculus, L929, 100 μM, read-out: maximal inhibition of TNF-α-induced cytolysis) was roughly 70%, the inhibition at 50 µM (L929 cells; Mus musculus, L929, at 50 μM) was roughly 40% and the “inhibition of TNF-α-induced cytolysis” value (L929 cells; at 50 μM) was “about 40%”. For the same molecule, the “inhibition … in L929 cells” value (L929 cells; from 0 to 100 μM, FIG. 3) was “dose-dependent inhibition” and the “inhibition of TNFα-induced phosphorylation of p38” value [5] was “clearly inhibits”.
